Laboratory results published in patent US20150307938A1, “METHOD TO IDENTIFY A NOVEL CLASS OF IMMUNOLOGIC ADJUVANTS” (Lancell, L.L.C., priority 2011, published 2015).
“And” between values parts separate entries of the source, which are not always exact repeats. Identical values can stand only once.

Tested on: skin
Assay: Affymetrix microarray of skin, DBP-4 hr and analogs vs. untreated; gene selection by log-2 fold change, Wilcoxon, Kendall tau (Tables 8, 9)
Type: in vivo, mouse
Details: mouse, in vivo

CCCCOC(=O)c1ccccc1C(=O)OCCCC [DBP, dibutylphthalate]
AY026312 NM_133359_at ≧2-Fold change: No | Abcc3 (NM_029600_at) ≧2-Fold change: Yes | Acot5 (NM_145444_at) ≧2-Fold change: Yes | Actn2 NM_033268_at ≧2-Fold change: No | Adamts4 (NM_172845_at) ≧2-Fold change: Yes | Akap12 (NM_031185_at) ≧2-Fold change: Yes | Akr1c14 NM_134072_at ≧2-Fold change: No | Aldh7a1 NM_001127338_at ≧2-Fold change: No | Angptl4 (NM_020581_at) ≧2-Fold change: Yes | Aox4 NM_023631_at ≧2-Fold change: No | Arc (NM_018790_at) ≧2-Fold change: Yes | Arid5a (NM_145996_at) ≧2-Fold change: Yes | Arid5a (NR_033310_at) ≧2-Fold change: Yes | Asb5 NM_029569_at ≧2-Fold change: No | Atp2a2 NM_001110140_at ≧2-Fold change: No | Atp13a3 NM_001128094_at ≧2-Fold change: No | Atp13a3 NM_001128096_at ≧2-Fold change: No | Bcar3 (NM_013867_at) ≧2-Fold change: Yes | Bcl3 (NM_033601_at) ≧2-Fold change: Yes | Bcr NM_001081412_at ≧2-Fold change: No | Bhlhe40 (NM_011498_at) ≧2-Fold change: Yes | Calcb (NM_054084_at) ≧2-Fold change: Yes | Camk2g NM_001039138_at ≧2-Fold change: No | Camk2g NM_001039139_at ≧2-Fold change: No | Ccl1 (NM_011329_at) ≧2-Fold change: Yes | Ccl2 (NM_011333_at) ≧2-Fold change: Yes | Ccl3 (NM_011337_at) ≧2-Fold change: Yes | Ccl7 (NM_013654_at) ≧2-Fold change: Yes | Ccl8 NM_021443_at ≧2-Fold change: No | Ccl9 (NM_011338_at) ≧2-Fold change: Yes | Ccl12 (NM_011331_at) ≧2-Fold change: Yes | Ccl17 (NM_011332_at) ≧2-Fold change: Yes | Ccl20 (NM_016960_at) ≧2-Fold change: Yes | Ccl24 NM_019577_at ≧2-Fold change: No | Cd86 (NM_019388_at) ≧2-Fold change: Yes | Cd207 (NM_144943_at) ≧2-Fold change: Yes | Cd209d NM_130904_at ≧2-Fold change: No | Ckmt2 NM_198415_at ≧2-Fold change: No | Cldn8 NM_018778_at ≧2-Fold change: No | Clec4e (NM_019948_at) ≧2-Fold change: Yes | Clec4n NM_020001_at ≧2-Fold change: No | Clec7a (NM_020008_at) ≧2-Fold change: Yes | Clec4d (NM_010819_at) ≧2-Fold change: Yes | Clic4 (NM_013885_at) ≧2-Fold change: Yes | Cmya5 NM_023821_at ≧2-Fold change: No | Comp NM_016685_at ≧2-Fold change: No | Corin NM_016869_at ≧2-Fold change: No | Crem (NM_013498_at) ≧2-Fold change: Yes | Crispld1 NM_031402_at ≧2-Fold change: No | Cxcl10 NM_021274_at ≧2-Fold change: No | Cxcl16 (NM_023158_at) ≧2-Fold change: Yes | Cxcr6 NM_030712_at ≧2-Fold change: No | Cyr61 (NM_010516_at) ≧2-Fold change: Yes | Cyth1 NM_001112699_at ≧2-Fold change: No | Cyth1 NM_001112700_at ≧2-Fold change: No | Cytip (NM_139200_at) ≧2-Fold change: Yes | DBP LogFold-Change Versus-Untreated: 1600029D21Rik: 1.52 | DBP LogFold-Change Versus-Untreated: 1810055G02Rik: 0.89 | DBP LogFold-Change Versus-Untreated: 5730408K05Rik: 0.91 | DBP LogFold-Change Versus-Untreated: 1810011010Rik: 1.53 | DBP LogFold-Change Versus-Untreated: Abcc3: 1.09 | DBP LogFold-Change Versus-Untreated: Adam8: 1.94 | DBP LogFold-Change Versus-Untreated: Adamts4: 1.41 | DBP LogFold-Change Versus-Untreated: Angptl4: 2.61 | DBP LogFold-Change Versus-Untreated: Aqp3: 0.89 | DBP LogFold-Change Versus-Untreated: Arc: 1.90 | DBP LogFold-Change Versus-Untreated: Arid5a: 1.49 | DBP LogFold-Change Versus-Untreated: Bcar3: 1.08 | DBP LogFold-Change Versus-Untreated: Bcl3: 2.56 | DBP LogFold-Change Versus-Untreated: Bhlhe40: 1.26 | DBP LogFold-Change Versus-Untreated: Birc3: 1.02 | DBP LogFold-Change Versus-Untreated: Btg2: 1.56 | DBP LogFold-Change Versus-Untreated: Ccl2: 3.23 | DBP LogFold-Change Versus-Untreated: Ccl7: 3.11 | DBP LogFold-Change Versus-Untreated: Ccl12: 3.10 | DBP LogFold-Change Versus-Untreated: Ccl20: 5.93 | DBP LogFold-Change Versus-Untreated: Ccrn4l: 1.75 | DBP LogFold-Change Versus-Untreated: Cd44: 1.31 | DBP LogFold-Change Versus-Untreated: Cd86: 1.73 | DBP LogFold-Change Versus-Untreated: Cd207: 1.42 | DBP LogFold-Change Versus-Untreated: Cebpd: 1.58 | DBP LogFold-Change Versus-Untreated: Ch25h: 1.91 | DBP LogFold-Change Versus-Untreated: Cirh1a: 0.79 | DBP LogFold-Change Versus-Untreated: Cish: 1.12 | DBP LogFold-Change Versus-Untreated: Clec7a: 2.09 | DBP LogFold-Change Versus-Untreated: Clic4: 1.12 | DBP LogFold-Change Versus-Untreated: Coro2a: 0.88 | DBP LogFold-Change Versus-Untreated: Crem: 1.29 and 1.23 | DBP LogFold-Change Versus-Untreated: Csf2rb: 1.11
